Assay results as given in publication PMC12270677, “Topological isomers of a potent wound healing peptide: Structural insights and implications for bioactivity” (The Journal of Biological Chemistry, 2025).
Positions of bridges follow the written chain, without caps; N, C: chain ends. Residues, ends and D or L forms follow the SMILES beside them. No end group written: not given here.

Columns and labels:
[1] = system: LX-2 human hepatic stellate cell line; assay: Real-time cell proliferation assay (xCELLigence); conditions: for EC50: read-out: EC50, LX-2 cell proliferation, xCELLigence SP, 3000 cells per well, serum-free medium, single treatment, proliferation measured 4 days after treatment, relative to scrambled peptide control GSP, variable slope dose-response fit, six replicates per treatment; for Proliferative response of LX-2 cells at concentrations up to 400 nM: 4 days after single treatment, relative to GSP, ANOVA against peptide control
Experimental: Real-time cell proliferation assays using xCELLigence technology were performed to assess the effects of GRN-P4A isomers and the mutant peptide GRN-L1m on the human hepatic stellate cell line LX-2.
Figure 7 Cell proliferation assay of GRN-P4A isomers and GRN-L1m on human hepatic stellate cells (LX-2). The five peptides were tested across a concentration range of 0.16 nM to 800 nM using the LX-2 human hepatic stellate cell line. Two negative controls were included: serum-free media (SFM) and a scrambled GRN-P4A peptide (GSP). The graphs display variable slope dose–response curves fitted to proliferation data measured 4 days after a single treatment application. […] Proliferation is expressed relative to the scrambled peptide control (GSP) and presented as mean ± SEM. Statistical significance was assessed using one-way ANOVA against the peptide control. ∗ = […], ∗∗ = p < 0.01, ∗∗∗ = p < 0.001, ∗∗∗∗ = p < 0.0001.
The LX-2 human hepatic stellate cell line was generously donated by Dr Lionel Hebbard. Cells were cultured and maintained in Dulbecco’s Modified Eagle Medium/Nutrient Mixture F-12 (DMEM/F12) with GlutaMAX (Gibco) with 2 × antibiotic/antimycotic solution (penicillin, streptomycin, and amphotericin B), supplemented with 2% fetal bovine serum (FBS) (Gibco), at 37°C and 5% CO2. For the negative control, cells were treated with scrambled granulin peptide (GSP) or serum free media diluent. Dried peptide powder was resuspended in Milli-Q water to 170 μM and diluted in serum-free DMEM/F12 media.
Cell proliferation was monitored in real time using the xCELLigence SP system (ACEA Biosciences), following previously established method ([37]). LX2 cells were seeded into a 96-well xCELLigence E-plate (Agilent) at a density of 3000 cells per well in 150 μl of medium, and placed in the xCELLigence system at 37°C with 5% CO2, for overnight monitoring ([38]). Treatments were applied in serum-free medium at 20 μl per well, achieving final concentrations of […] to 800 nM, with six replicates per treatment. The cell index (CI) was continuously monitored using the Real-Time Cell Analysis (RTCA) software (Agilent), with measurements taken every hour over 6 days following treatment. Cell indices were normalized to the baseline values prior to treatment, and cell proliferation was expressed as the relative number of cells compared to the negative control GRN-scrambled peptide (GSP). Statistical analysis was conducted using two-way ANOVA test with Holm-Sidak’s correction comparing controls to treatments at each timepoint with GraphPad Prism 9.3.1 (www.graphpad.com).

[2] = NMR at three temperatures to assess interconversion of isomer 1 into isomer 2; assay type: physicochemical; conditions: αH secondary shifts at 283 K, 290 K and 310 K, 0.2 mM peptide in water/D2O
Experimental: NMR spectra of isomer 1 were recorded at the three different temperatures of 290 K (standard conditions), 310 K (physiological temperature), and 283 K (lower temperature) to assess potential interconversion into isomer 2, the major oxidation product.
Lyophilized peptides were rehydrated in a mixture of 500 μl water and 50 μl D2O, to obtain a final concentration of 0.2 mM. NMR spectra were recorded at temperatures of 283, 290 and 310 K using a 600 MHz Bruker Avance III spectrometer (Bruker) equipped with a cryoprobe. Chemical shifts were referenced to external DSS (sodium trimethylsilylpropanesulfonate). Two-dimensional spectra included [^1H,^1H]-TOCSY, [^1H,^1H]-H/D exchange TOCSY, [^1H,^1H]-NOESY, [^1H,^1H]-COSY, [^1H,^1H]-exclusive correlation spectroscopy, [^1H,^13 C]-HSQC, and [^1H,^15 N]-HSQC with TOCSY and NOESY mixing times of 80 ms and 200 ms, respectively. NMR data processing and analysis were performed using TopSpin (Bruker), and peak assignments were made using CcpNMR Analysis (Collaborative Computing Project for NMR) based on the method outlined by Wuthrich ([28], [29]). Backbone torsion-angle restraints for phi and psi were predicted from ^1H and ^13C chemical-shift analyses, were predicted using TALOS-N ([30]). […] The αH secondary shifts were determined by subtracting random coil ^1H NMR chemical shifts ([19]) from the experimental αH chemical shifts. […]

[3] = system: wound healing in a mouse model; conditions: compared with Regranex; cited from earlier work
From the text: This study highlights the structural complexity and bioactivity of isomers in disulfide-rich peptides, with a focus on GRN-P4A. GRN-P4A is a mutant peptide derived from Ov-GRN12 − 35_3s, a truncated form of the liver fluke granulin Ov-GRN-1, known for its potent wound healing properties.

In the case of `CC(C)C[C@@H]1NC(=O)CNC(=O)[C@H](CCCNC(=N)N)NC(=O)[C@@H]2CSSC[C@@H](C(=O)O)NC(=O)[C@H](CSSC[C@@H]3NC(=O)[C@H]([C@@H](C)O)NC(=O)[C@H](Cc4ccc(O)cc4)NC(=O)[C@H](C(C)C)NC(=O)[C@H](C)NC(=O)[C@H](CC(=O)O)NC(=O)[C@@H]4CCCN4C(=O)[C@@H](N)CSSC[C@H](NC(=O)[C@H]([C@@H](C)O)NC(=O)[C@H](CCC(N)=O)NC(=O)CNC(=O)[C@@H]4CCCN4C(=O)[C@H](CCCNC(=N)N)NC3=O)C(=O)N2)NC(=O)CNC(=O)[C@H](Cc2ccc(O)cc2)NC(=O)CNC(=O)[C@H](Cc2c[nH]cn2)NC1=O` (single isomer, unassigned) [GRN-P4A isomer 2], the EC50 ([1]; LX-2 cells) is reported as 93 nM.
Work on `CC(C)C[C@@H]1NC(=O)CNC(=O)[C@H](CCCNC(=N)N)NC(=O)[C@@H]2CSSC[C@@H](C(=O)O)NC(=O)[C@H](CSSC[C@@H]3NC(=O)[C@H]([C@@H](C)O)NC(=O)[C@H](Cc4ccc(O)cc4)NC(=O)[C@H](C(C)C)NC(=O)[C@H](C)NC(=O)[C@H](CC(=O)O)NC(=O)CNC(=O)[C@@H](N)CSSC[C@H](NC(=O)[C@H]([C@@H](C)O)NC(=O)[C@H](CCC(N)=O)NC(=O)CNC(=O)[C@@H]4CCCN4C(=O)[C@H](CCCNC(=N)N)NC3=O)C(=O)N2)NC(=O)CNC(=O)[C@H](Cc2ccc(O)cc2)NC(=O)CNC(=O)[C@H](Cc2c[nH]cn2)NC1=O` [GRN-L1m] (H-CGDAVYTCRPGQTCCRGLHGYGCC-OH; disulfide 1-14, 8-23, 15-24) yielded an EC50 ([1]; LX-2 cells) of 318 nM.
With “CPDAVYTCRPGQTCCRGLHGYGCC (also: bicyclic or more (positions not given here)) [GRN-P4A isomer 1, Fully oxidized GRN-P4A topological isomer eluting first in RP-HPLC, mini-granulin fold]” the “Proliferative response of LX-2 cells at concentrations up to 400 nM” value (“Proliferative response of LX-2 cells” for short) ([1]; xCELLigence) was “did not produce a statistically significant proliferative response”, the “Proliferative response of LX-2 cells” value ([1]; xCELLigence, listed as isomer 1) was “did not produce a statistically significant response” and the “Conformational stability / interconversion into isomer 2 with temperature” value ([2]; listed as Isomer 1) was “retained its structure across all tested temperatures”. For the same molecule, the “Conformational stability / interconversion into isomer 2 with temperature” value ([2]; listed as isomer 1) was “no evidence of interconversion”.
With “CPDAVYTCRPGQTCCRGLHGYGCC (also: bicyclic or more (positions not given here)) [GRN-P4A isomer 3]” the Cytotoxicity ([1]; LX-2 cells, xCELLigence, statement in the Discussion, likely due to peptide aggregation) was “displayed cytotoxicity” and the “Proliferative response of LX-2 cells” value ([1]; xCELLigence, listed as isomer 3) was “did not produce a statistically significant response”.
With “CPDAVYTCRPGQTCCRGLHGYGCC (also: bicyclic or more (positions not given here)) [GRN-P4A isomer 4]” the “Cell proliferation at higher concentrations” value ([1]; LX-2 cells, xCELLigence, statement in the Discussion, tested up to 800 nM) was “promoted cell proliferation at higher concentrations” and the “Proliferative response of LX-2 cells” value ([1]; xCELLigence, listed as isomer 4) was “did not produce a statistically significant response”.
For “CPDAVYTCRPGQTCCRGLHGYGCC (also: bicyclic or more (positions not given here)) [GRN-P4A, 24-residue peptide containing three disulfide bonds engineered from liver-fluke granulin Ov-GRN-1]”, the “Wound healing activity in a mouse model” value [3] is listed as “enhanced wound healing activity”.
